From patent US8604198B2, “Salt of proline derivative, solvate thereof, and production method thereof” (Mitsubishi Tanabe Pharma Corporation, priority 2005, dated 2013)

Assays:
Assay type in all cases: physicochemical
[1] = Measurement of hygroscopicity (moisture adsorption measurement); settings: 25° C., reduced pressure type moisture adsorption measurement apparatus
Description: The hygroscopicity of the title compound of Example 3 was measured under the following conditions using a moisture adsorption measurement apparatus. • apparatus: MB-300G manufactured by VTI • measurement temperature: 25° C. • measurement range: 0-95% RH
The title compound of Example 3 was subjected to a moisture adsorption measurement using a reduced pressure type moisture adsorption measurement apparatus.

[2] = Measurement of solubility in water (visual observation); settings: 37° C., shaken 1 hr
Description: As a measurement method, visual observation was used, which permits convenient evaluation of rough solubility with a small amount of sample. The temperature during measurement was 37° C. About 3 mg of the title compound of Example 3 was taken in a sample bottle with a screw cap, a test solution (0.15 mL) was added and the cap was screwed tightly thereon. The sample was ultrasonicated for 1 min to give a dispersion, which was placed in a shaking-type thermostat water bath stabilized at 37° C. and shaken for 1 hr. Then, dissolution was confirmed by visual observation.

[3] = Measurement of solubility at pH 9-13 (HPLC)
Description: Using 0.2 mol/L NaOH/0.1 mol/L NaCl mixed solution as a test solution, the solubility of the title compound of Example 3 having a pH of 9-13 at room temperature was analyzed by liquid chromatography (HPLC) (n=3). […] From the foregoing, the solubility of the title compound of Example 3 was concluded to be about 7 mg/mL.

state of water content ([1]; 0% RH): almost completely dry
water maintained, corresponding to hydrate ([1]; 50% RH): 1.8 hydrate
solubility in water [2]: not less than 20 mg/mL
Solubility ([3]; pH 8.81, 25° C.): 8400 µg/mL
solubility (concluded) ([3]; pH 9-13, room temperature, conclusion from the measured range): about 7 mg/mL
Solubility ([3]; pH 11.94, 25° C.): 7200 µg/mL
Solubility ([3]; pH 11.98, 25° C.): 7900 µg/mL
Solubility ([3]; pH 12.10, 25° C.): 7200 µg/mL
Solubility ([3]; pH 12.26, 25° C.): 7800 µg/mL
Solubility ([3]; pH 12.70, 25° C.): 6400 µg/mL
Solubility ([3]; pH 12.99, 25° C.): 6800 µg/mL
SMILES: Br.Br.Br.Br.Br.Cc1cc(N2CCN([C@@H]3CN[C@H](C(=O)N4CCSC4)C3)CC2)n(-c2ccccc2)n1.Cc1cc(N2CCN([C@@H]3CN[C@H](C(=O)N4CCSC4)C3)CC2)n(-c2ccccc2)n1 [Example 3, 3-{(2S,4S)-4-[4-(3-methyl-1-phenyl-1H-pyrazol-5-yl)piperazin-1-yl]pyrrolidin-2-ylcarbonyl}thiazolidine 2.5 hydrobromide]
